In patent US8066980B2, “Osteogenic synthetic peptides, pharmaceutical compositions comprising the same, and medium containing the same” (Industry Foundation of Chonnam National University, priority 2008, dated 2011):
Where a SMILES comes first, the peptide text is derived from it.

What was measured:
cells = test: MTT assay for cytotoxicity; format: cell-based; conditions: within a range of used concentrations
surface marker CD44 = test: Fluorescence microscopy of surface marker CD44; format: cell-based, mouse; conditions: at the same concentrations
Excerpt: The effects of BFP 1 and BFP 2 on the expression of the surface marker CD44 were observed under a fluorescence microscope and the results are given in FIGS. 10a and 10b.
During differentiation, the cells were stained with DAPI, a fluorescent stain that easily binds to the DNA of living cells, and with a PE(phycoerythrin)-conjugated-CD44 antibody.

With `CC(C)[C@H](NC(=O)[C@H](C)NC(=O)[C@H](CCCCN)NC(=O)[C@H](Cc1ccc(O)cc1)NC(=O)[C@@H]1CCCN1C(=O)[C@H](Cc1ccc(O)cc1)NC(=O)[C@H](CO)NC(=O)[C@H](Cc1ccccc1)NC(=O)CNC(=O)[C@H](CCC(N)=O)NC(=O)CN)C(=O)N[C@@H](Cc1ccccc1)C(=O)N[C@@H](CO)C(=O)N[C@H](C(=O)N[C@@H](CCC(N)=O)C(=O)O)[C@@H](C)O` [BFP 1, Gly-Gln-Gly-Phe-Ser-Tyr-Pro-Tyr-Lys-Ala-Val-Phe-Ser-Thr-Gln] (H-GQGFSYPYKAVFSTQ-OH) the “cytotoxicity (MTT assay)” value (cells) was “neither BFP 1 nor BFP 2 are toxic to cells”.

In the case of `CC(C)[C@H](N)C(=O)N[C@@H](CCC(=O)O)C(=O)N[C@@H](Cc1c[nH]cn1)C(=O)N[C@@H](CC(=O)O)C(=O)N[C@@H](CCCCN)C(=O)N[C@@H](CCC(=O)O)C(=O)N[C@@H](Cc1ccccc1)C(=O)N[C@@H](Cc1ccccc1)C(=O)N[C@@H](Cc1c[nH]cn1)C(=O)N1CCC[C@H]1C(=O)N[C@@H](CCCNC(=N)N)C(=O)N[C@@H](Cc1ccc(O)cc1)C(=O)N[C@@H](Cc1c[nH]cn1)C(=O)N[C@@H](Cc1c[nH]cn1)C(=O)N[C@@H](CCCNC(=N)N)C(=O)O` [BFP 2, Val-Glu-His-Asp-Lys-Glu-Phe-Phe-His-Pro-Arg-Tyr-His-His-Arg] (H-VEHDKEFFHPRYHHR-OH), the “cytotoxicity (MTT assay)” value (cells) is reported as “neither BFP 1 nor BFP 2 are toxic to cells”.

B1: BMP-7: bone morphogenetic protein-7, known as an osteogenesis promoter; comparator (protein, UniProt P18075 293-431, looked up)
Bone morphogenetic protein 7: STGSKQRSQNRSKTPKNQEALRMANVAENSSSDQRQACKKHELYVSFRDLGWQDWIIAPEGYAAYYCEGECAFPLNSYMNATNHAIVQTLVHFINPETVPKPCCAPTQLNAISVLYFDDSSNVILKKYRNMVVRACGCH
B1 was tested, and the “CD44 staining intensity compared with BFP 1 or BFP 2” value (surface marker CD44) was “less intense staining”.
